22 compounds from patent publication EP4653437A2 (Innovo Therapeutics Inc., priority 2023, dated 2024) can be followed below.

Like-named read-outs stand apart in the source and are kept apart here. A value given as a limit tells only on which side of the number the result lay.

One experiment concerns the target T1, human 15-PGDH (Homo sapiens, UniProt P15428).
T1 construct: purchased R&D System 5660-DH
T1 sequence (P15428 1-266): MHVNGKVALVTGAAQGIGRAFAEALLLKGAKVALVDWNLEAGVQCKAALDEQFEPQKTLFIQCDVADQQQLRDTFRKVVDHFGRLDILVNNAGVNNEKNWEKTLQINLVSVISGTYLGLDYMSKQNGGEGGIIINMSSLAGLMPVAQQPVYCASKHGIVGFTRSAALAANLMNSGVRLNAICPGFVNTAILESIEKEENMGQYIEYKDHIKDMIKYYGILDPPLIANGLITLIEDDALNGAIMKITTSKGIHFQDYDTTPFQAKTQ
Nature of the experiment: Evaluation of 15-PGDH inhibitory activity (fluorescence enzyme assay, NAD+/PGE2). The class given is biochemical. The conditions noted are these: human 15-PGDH enzyme, fluorescence Vmax. The procedure:
15-PGDH inhibition activity of Example compounds was measured as follows. 6.7 ng of human 15-PGDH (R&D System# 5660-DH) enzyme (10 µL) was added to a black 96 well plate, 60 µL of buffer (50 mM Tris-HCl, pH 7.5, 0.01% Tween 20) was added, and 10 µL of 200 µM β-Nicotinamide adenine dinucleotide sodium salt (Sigma, Cat# N0632-5G) was added. 10 µL of (10x) compound solution in DMSO was added and reacted for 10 minutes at room temperature.

A further experiment relates to A549 cells. Nature of the experiment: Measurement of PGE2-increasing activity in A549 cells (IL-1β stimulated, PGE2 quantified in supernatant). The class given is cell-based. The conditions noted are these: Homo sapiens, read-out: Increased PGE2 production in A549 cells. The essentials: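 A549 cells grown 24 h in F12K with 10% FBS, then switched to serum-free medium with or without IL-1β and compound (0.1% DMSO final). After 24 h at 37 °C, 5% CO2, supernatant PGE2 quantified by immunoassay.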

The mark [1] stands for this setting: 24 h, concentration of 1 µM of each compound, IL-1β treated A549 cells.

Take `N#Cc1c(F)cc(-c2cccc3c(C(=O)N4CCCCC4)cnn23)cc1F` [Example 290, 2,6-difluoro-4-(3-(piperidine-1-carbonyl)pyrazolo[1,5-a]pyridin-7-yl)benzonitrile]: on human 15-PGDH, the concentration for half-maximal inhibition (IC50) was at most 100 nM. Also, the fold induction at 1 µM with A549 cells (setting [1]) was above 1.5.

The compound `O=C(c1cnn2c(-c3ccccc3)cccc12)N1C2CCC1CC2` [Example 229, (7-azabicyclo[2.2.1]heptan-7-yl)(7-phenylpyrazolo[1,5-a]pyridin-3-yl)methanone] displayed an IC50 against human 15-PGDH of at most 100 nM. For the same compound, the fold induction at 1 µM in the experiment with A549 cells (A549, 24 h) is above 1.5.

Regarding `O=C(Cc1ccccc1)Nc1cncc(-c2cccc3c(C(=O)N4CCCCC4)cnn23)c1` [Example 389, 2-phenyl-N-(5-(3-(piperidine-1-carbonyl)pyrazolo[1,5-a]pyridin-7-yl)pyridin-3-yl)acetamide], the half-maximal inhibitory concentration (IC50) at human 15-PGDH was at most 100 nM. Moreover, the fold induction at 1 µM in the experiment on A549 cells (setting [1]) was above 1.5.

In the case of `O=C1NCCc2ccc(-c3cccc4c(C(=O)N5CCC(F)CC5)cnn34)cc21` [Example 154, 7-(3-(4-fluoropiperidine-1-carbonyl)pyrazolo[1,5-a]pyridin-7-yl)-3,4-dihydroisoquinolin-1(2H)-one], the IC50 against human 15-PGDH is at most 100 nM. Moreover, the fold induction at 1 µM in the experiment with A549 cells (setting [1]) is above 1.5.

At human 15-PGDH, `O=C(c1cnn2c(-c3cnc(N4CCOC4=O)c(F)c3)cccc12)N1CCCCC1` [Example 323, 3-(3-fluoro-5-(3-(piperidine-1-carbonyl)pyrazolo[1,5-a]pyridin-7-yl)pyridin-2-yl)oxazolidin-2-one] registered an IC50 of at most 100 nM. For the same compound, the fold induction at 1 µM in the experiment on A549 cells (setting [1]) is above 1.5.

The compound `CNC(=O)c1cccc(-c2cccc3c(C(=O)N4CCCCC4)cnn23)c1` [Example 27, N-methyl-3-(3-(piperidine-1-carbonyl)pyrazolo[1,5-a]pyridin-7-yl)benzamide] had a half-inhibitory concentration (IC50) on human 15-PGDH of at most 100 nM. The fold induction at 1 µM in the experiment on A549 cells (setting [1]) is below 1.5.

As to `O=C(c1cnn2c(-c3cnc(O)nc3)cccc12)N1CCCCC1` [Example 294, [7-(2-hydroxypyrimidin-5-yl)pyrazolo[1,5-a]pyridin-3-yl]-(1-piperidyl)methanone], on human 15-PGDH, the 50% inhibitory concentration (IC50) is at most 100 nM. Besides, the fold induction at 1 µM in the experiment on A549 cells (setting [1]) is below 1.5.

At human 15-PGDH, `O=C(c1cccc(-c2cccc3c(C(=O)N4CCCCC4)cnn23)c1)N1CCOCC1` [Example 26, (7-(3-(morpholine-4-carbonyl)phenyl)pyrazolo[1,5-a]pyridin-3-yl)(piperidin-1-yl)methanone] had an IC50 of at most 100 nM. In the experiment with A549 cells (setting [1]), the fold induction at 1 µM was above 1.5.

`O=C(NCC1CC1)c1ccc(-c2cccc3c(C(=O)N4CCCCC4)cnn23)cn1` [Example 80, N-(cyclopropylmethyl)-5-(3-(piperidine-1-carbonyl)pyrazolo[1,5-a]pyridin-7-yl)picolinamide] registered an IC50 on human 15-PGDH of at most 100 nM. In addition, the fold induction at 1 µM in the experiment on A549 cells (setting [1]) was above 1.5.

The compound `O=C(COc1ccc(Cl)cc1)Nc1ccc(-c2cccc3c(C(=O)N4CCCCC4)cnn23)cn1` [Example 410, 2-(4-chlorophenoxy)-N-[5-[3-(piperidine-1-carbonyl)pyrazolo[1,5-a]pyridin-7-yl]-2-pyridyl]acetamide] yielded a 50% inhibitory concentration (IC50) against human 15-PGDH of at most 100 nM. Moreover, the fold induction at 1 µM in the experiment with A549 cells (setting [1]) was above 1.5.

In turn, `O=C(c1cnn2c(-c3ccc(-c4noc(=O)[nH]4)cc3)cccc12)N1CCCCC1` [Example 116, 3-(4-(3-(piperidine-1-carbonyl)pyrazolo[1,5-a]pyridin-7-yl)phenyl)-1,2,4-oxadiazol-5(4H)-one] had a half-maximal inhibitory concentration (IC50) at human 15-PGDH of at most 100 nM. Moreover, the fold induction at 1 µM with A549 cells (setting [1]) was above 1.5.

At human 15-PGDH, `O=C(c1cnn2c(-c3ccnc(-c4cnn(Cc5ncon5)c4)c3)cccc12)N1CCCCC1` [Example 397, (7-(2-(1-((1,2,4-oxadiazol-3-yl)methyl)-1H-pyrazol-4-yl)pyridin-4-yl)pyrazolo[1,5-a]pyridin-3-yl)(piperidin-1-yl)methanone] yielded a half-inhibitory concentration (IC50) of at most 100 nM. Further, the fold induction at 1 µM in the experiment with A549 cells (setting [1]) was above 1.5.

At human 15-PGDH, `O=C(c1cnn2c(-c3ccc(N4CCC4)nc3)cccc12)N1CCCCC1` [Example 206, (7-(6-(azetidin-1-yl)pyridin-3-yl)pyrazolo[1,5-a]pyridin-3-yl)(piperidin-1-yl)methanone] came in with an IC50 of at most 100 nM. Further, in the experiment with A549 cells (setting [1]), the fold induction at 1 µM was above 1.5.

`O=C(Nc1cccnc1)c1cncc(-c2cccc3c(C(=O)N4CCCCC4)cnn23)c1` [Example 53, 5-(3-(piperidine-1-carbonyl)pyrazolo[1,5-a]pyridin-7-yl)-N-(pyridin-3-yl)nicotinamide] registered an IC50 at human 15-PGDH of at most 100 nM. Moreover, in the experiment on A549 cells (setting [1]), the fold induction at 1 µM is above 1.5.

`Cc1nc(-c2cc(N)cc(-c3cccc4c(C(=O)N5CCCCC5)cnn34)c2)no1` [Example 343, (7-(3-amino-5-(5-methyl-1,2,4-oxadiazol-3-yl)phenyl)pyrazolo[1,5-a]pyridin-3-yl)(piperidin-1-yl)methanone] returned a half-maximal inhibitory concentration (IC50) against human 15-PGDH of at most 100 nM. Besides, in the experiment on A549 cells (setting [1]), the fold induction at 1 µM is above 1.5.

`O=C(c1cnn2c(-c3cnc(F)c(Cl)c3)cccc12)N1CCCCC1` [Example 289, (7-(5-chloro-6-fluoropyridin-3-yl)pyrazolo[1,5-a]pyridin-3-yl)(piperidin-1-yl)methanone]: at human 15-PGDH, the IC50 was at most 100 nM. Besides, the fold induction at 1 µM with A549 cells (setting [1]) was above 1.5.

`Cc1noc(C)c1-c1ncc(-c2cccc3c(C(=O)N4CCCCC4)cnn23)cn1` [Example 399, [7-[2-(3,5-dimethylisoxazol-4-yl)pyrimidin-5-yl]pyrazolo[1,5-a]pyridin-3-yl]-(1-piperidyl)methanone] had an IC50 against human 15-PGDH of at most 100 nM. In the experiment on A549 cells (setting [1]), the fold induction at 1 µM was above 1.5.

In turn, `Cn1nccc1-c1cc(-c2cccc3c(C(=O)N4CCCCC4)cnn23)cc(N2CCOC2=O)n1` [Example 367, 3-(6-(1-methyl-1H-pyrazol-5-yl)-4-(3-(piperidine-1-carbonyl)pyrazolo[1,5-a]pyridin-7-yl)pyridin-2-yl)oxazolidin-2-one] came in with an IC50 at human 15-PGDH of at most 100 nM. Moreover, the fold induction at 1 µM with A549 cells (setting [1]) is above 1.5.

On to `O=C(c1cnn2c(-c3cnn(Cc4ncon4)c3)cccc12)N1CCCCC1` [Example 395, (7-(1-((1,2,4-oxadiazol-3-yl)methyl)-1H-pyrazol-4-yl)pyrazolo[1,5-a]pyridin-3-yl)(piperidin-1-yl)methanone], for which the 50% inhibitory concentration (IC50) at human 15-PGDH is at most 100 nM. In the experiment on A549 cells (setting [1]), the fold induction at 1 µM was above 1.5.

On human 15-PGDH, `O=C(c1ccc(-c2cccc3c(C(=O)N4CCCCC4)cnn23)cn1)N1CC(F)(F)C1` [Example 237, (3,3-difluoroazetidin-1-yl)-[5-[3-(piperidine-1-carbonyl)pyrazolo[1,5-a]pyridin-7-yl]-2-pyridyl]methanone] registered an IC50 of at most 100 nM. Moreover, the fold induction at 1 µM in the experiment on A549 cells (setting [1]) was above 1.5.

`O=C(Cc1ccc(C(F)(F)F)nc1)Nc1cncc(-c2cccc3c(C(=O)N4CCCCC4)cnn23)c1` [Example 388, N-(5-(3-(piperidine-1-carbonyl)pyrazolo[1,5-a]pyridin-7-yl)pyridin-3-yl)-2-(6-(trifluoromethyl)pyridin-3-yl)acetamide] displayed a concentration for half-maximal inhibition (IC50) at human 15-PGDH of at most 100 nM. For the same compound, the fold induction at 1 µM with A549 cells (setting [1]) was above 1.5.

As to `O=C(c1cnn2c(-c3cc(-c4cnoc4)nc(N4CCOCC4)c3)cccc12)N1CCCCC1` [Example 366, (7-(2-(isoxazol-4-yl)-6-morpholinopyridin-4-yl)pyrazolo[1,5-a]pyridin-3-yl)(piperidin-1-yl)methanone], on human 15-PGDH, the IC50 is at most 100 nM. For the same compound, in the experiment with A549 cells (setting [1]), the fold induction at 1 µM is above 1.5.

One may read the IC50 as the concentration at which inhibition is half-maximal. High values mean lower potency, low ones higher potency.
